Experimental data published in patent publication US6774121B1, “Phospholipid prodrugs of anti-proliferative drugs” (D-Pharm, Ltd., priority 1999, dated 2004).
Values joined by “and” are separate entries in the source; they are usually repeats but may differ in a detail not shown here. Identical values can stand only once.

Legend:
[1] = test system: Friend cells (an erythroleukemic cell line); test: MTT cytotoxicity, Friend cells (Example 5); type: cell-based; conditions: 72 hour
Description: The toxicity of methotrexate derivatives of the invention (DP-MTX) was evaluated in an additional cell-culture system. The doses required to inhibit the growth of cultured Friend cells (an erythroleukemic cell line) by 50%, over a 72 hour period (ED50), were determined using a mitochondrial viability (MTT) endpoint assay.
Friend cells were seeded at a density of 10^4 cells/ml in RPMI medium supplemented with 10% FCS in 96 well plates. The cultured cells were incubated, during their linear growth phase, in the presence and absence of various concentrations of MTX derivatives. After 72 hours at 37° C., cell viability was estimated by using the colorimetric MTT assay.

L1210 cells = test: Survival of pre-treated mice after L1210 tumor cell implantation; type: in vivo, mouse; conditions: pre-treatment 3 mg/Kg or equivalent i.p. every other day for 21 days
Description: Protection against tumor growth was examined in mice pretreated with MTX or DP-MTX-71.
At the end of this regimen, the mice were injected with 1×10^6 L1210 cells into the peritoneum. The animals were then monitored for viability for 12 days subsequent to the injection of the tumor cells.

L1210 = test: MTT cytotoxicity, parent L1210 cells (Example 9); type: cell-based; conditions: Mus musculus

CN(Cc1cnc2nc(N)nc(N)c2n1)c1ccc(C(=O)N[C@@H](CCC(=O)O)C(=O)O)cc1 [MTX, Methotrexate]
ED50 [1]: 10 nmol
Surviving mice (L1210 cells; 9 days after tumor implantation): 6/6
Surviving mice (L1210 cells; 10 days after tumor implantation): 4/6
Surviving mice (L1210 cells; 11 days after tumor implantation): 3/6
Surviving mice (L1210 cells; 12 days after tumor implantation): 2 and 2/6
EC50 (L1210): 14 nM
